PMC4939023, “Efficacy of delayed treatment of China-made Peramivir with repeated intravenous injections in a mouse influenza model: from clinical experience to basal experiment” (BMC Infectious Diseases, 2016)
Several values for one entry are separate records, joined by “and”; a condition that tells them apart may be missing. Equal entries are not always repeated. Entries after “also recorded” stand apart in the source; their conditions may differ. Where two headings read alike, the source gives them in different places.

What was measured:
influenza A/H1N1 = details: cited from earlier work; for weight loss and mortality: single intramuscular injection 10 mg/kg, mice infected with influenza A/H1N1
[1] = system: Influenza A H1N1pdm2009 (A/GZ/GIRD07/09, H1N1); design: species or system BALB/C mice; details: mouse, in vivo
H7N9 = system: H7N9; design: species or system human patients; details: human, in vivo
[2] = system: Influenza A H1N1pdm2009 (A/GZ/GIRD07/09, H1N1); design: species or system BALB/C mice; details: mouse, in vivo; remark: listed apart in the source
[3] = cited from earlier work
influenza [4] = details: given as late as 60 h after infection; cited from earlier work
[5] = system: Influenza A H1N1pdm2009 (A/GZ/GIRD07/09, H1N1); design: species or system BALB/C mice; details: mouse, in vivo; remark: listed apart in the source
[6] = system: Influenza B (B/Guangzhou/GIRD08/09); design: species or system BALB/C mice; details: mouse, in vivo
[7] = oral administration; no reference given; cited from earlier work
influenza virus = details: repeated intravenous injections for 5 days, patients at high risk of complications; cited from earlier work
[8] = mouse, in vivo
[9] = system: influenza A (H1N1) 2009 virus; details: cited from earlier work
influenza [10] = details: cited from earlier work

## CCOC(=O)C1=C[C@@H](OC(CC)CC)[C@H](NC(C)=O)[C@@H](N)C1 [Oseltamivir]
Influenza A/H1N1
  weight loss and mortality: no efficacy
[1]
  lung virus titer vs virus group: reduced
H7N9
  Clinical outcome: Survival; also recorded: Death
[2]
  efficacy of delayed treatment (survival): no efficacy

## CCC(CC)[C@H](NC(C)=O)[C@@H]1[C@H](O)[C@@H](C(=O)O)C[C@H]1N=C(N)N [Peramivir]
[3]; 1000 mg/kg·d administered for 5 days
  toxicity or side effects: no signs of toxicity or side effects
[3]; doses as high as 3000 mg/kg·d administered as a single dose
  toxicity or side effects: no signs of toxicity or side effects
Influenza [4]
  prevention of death: able to prevent death
Influenza A/H1N1; single intramuscular dose 10 mg/kg administered at 24 or 48 h p.i.
  prevention of death: prevented death
Influenza A/H1N1
  weight loss and mortality: significantly reduces weight loss and mortality
[5]
  lung index vs virus group: improvement
[1]
  lung virus titer vs virus group: reduced lung virus titers
[6]
  lung index vs virus group: improved
H7N9
  Clinical outcome: Survival; also recorded: Death
  treatment efficacy in H7N9 patients: a degree of treatment efficacy; also recorded: some treatment efficacy
[7]
  oral bioavailability: ≤ 3%
Influenza virus
  clinical effect: beneficial effects
  safety: no major safety issues
[8]
  concentration in the blood of virus-infected mice compared with normal mice: no significant differences
[9]; 40 mg/kg·d i.v. QD x 20 days starting at 24, 48 or 72 h p.i.
  survival rates and viral titers in the lungs: increased survival rates and reduced viral titers in the lungs
[9]; repeated intravenous injections 40 mg/kg·d for 20 days
  drug-related toxicity: no obvious signs of drug-related toxicity
[2]
  efficacy of delayed treatment (survival rate) vs virus group: efficacy was observed
  efficacy of delayed treatment (survival): no efficacy
  mean number of days to death: > 15 days
  survival rate: 100% and 80% and 70%
  survival rate vs virus group: enhanced
[2]; iv, 60 mg/kg
  difference in weight loss suppression compared with the virus group: about 9%
  weight loss suppression compared with the virus group: significant weight loss suppression
Influenza [10]
  in vitro activity relative to Oseltamivir carboxylate and Zanamivir: comparable to, or better than

## CC(=O)N[C@H]1[C@H]([C@H](O)[C@H](O)CO)OC(C(=O)O)=C[C@@H]1N=C(N)N [Zanamivir]
H7N9
  Clinical outcome: Death; also recorded: Survival
